Measurements: patent publication US20160271094A1, “Laquinimod Combination Therapy For Treatment Of Multiple Sclerosis” (priority 2013, published 2016)
Structures can show the parent of a compound that is named as a salt.

Tests used:
Format in all cases: in vivo, mouse (C57BL/6)
MOG induced EAE [1] = experiment: Example 1B: laquinimod in combination with DMF in MOG-induced EAE; conditions: Day 1 to 30; for % Inhibition 2: according to MMS; for % Inhibition 2 / % Inhibition 1 / % Inhibition 3: vs vehicle; for % Inhibition 1: according to incidence; for % Inhibition 3: activity according to GMS; for GMS value: group mean score; for MMS value: mean maximal score
MOG-induced EAE = experiment: Example 1A: laquinimod alone or in combination with DMF in MOG-induced EAE (present tense)
MOG induced EAE [2] = experiment: Example 1C: suboptimal dose of laquinimod combined with MEF or EMF in MOG induced EAE; conditions: for Group Mean Score / Incidence % inhibition / Incidence Total / Mean Disease Duration / Mean Maximal Score / Mean Onset days / Mortality Total % / GMS Inhibition % / MMS Inhibition %: study interrupted on day 21; for GMS Inhibition % / MMS Inhibition %: vs vehicle
[3] = DMF 45 mg/kg gavage bid (90 mg/kg/day)
[4] = EMF 135 mg/kg gavage twice a day from Day 1
[5] = EMF 135 mg/kg gavage twice a day from Day 1, listed as EFM
[6] = laquinimod 5 mg/kg/day gavage qd
[7] = laquinimod 10 mg/kg/day gavage qd
[8] = laquinimod 25 mg/kg/day gavage qd
[9] = laquinimod 5 mg/kg/day gavage (AM) from Day 1
[10] = laquinimod 25 mg/kg/day gavage (AM) from Day 1, positive control
[11] = MEF 90 mg/kg gavage twice a day from Day 1

## COC(=O)/C=C/C(=O)OC [DMF, dimethyl fumarate]
MOG induced EAE [1]; [3]
  Incidence: 13/15
  Mean Duration: 13.4 ± 6.2 days
  Mean Onset: 17.1 ± 6.3 days
  Mortality: 0/15
  % Inhibition 2: 25.7%
  % Inhibition 1: 13.3%
  % Inhibition 3: 33.3%
  GMS value: 1.4 ± 0.9
  MMS value: 2.6 ± 1.4
MOG-induced EAE; DMF 25 mg/kg oral QD alone
  inhibition of disease severity: moderately effective

## CCOC(=O)/C=C/C(=O)OC [EMF, ethyl methyl fumarate]
MOG induced EAE [2]; [4]
  Group Mean Score: 0.51 ± 0.2
  Incidence % inhibition: 46.6%
  Incidence Total: 8/15
  Mean Disease Duration: 3.3 ± 0.9 days
  Mean Maximal Score: 1.2 ± 0.38
  Mean Onset days: 18.4 ± 1.0 days
  Mortality Total %: 0%
  GMS Inhibition %: 47.7%
  MMS Inhibition %: 36.8%
MOG induced EAE [2]; [5]
  Incidence % inhibition: 46.7%
  GMS Inhibition %: 47.4%
MOG induced EAE [2]; EMF at 135 mg/kg BID alone
  effectiveness in MOG induced EAE (conclusion): highly effective

## CCN(C(=O)c1c(O)c2c(Cl)cccc2n(C)c1=O)c1ccccc1 [Laquinimod, laquinimod]
MOG induced EAE [1]; [6]
  % Inhibition 2: 40.0%
  % Inhibition 1: 33.3%
  % Inhibition 3: 61.9%
  GMS value: 0.8 ± 0.7
  Incidence: 10/15
  Mean Duration: 8.0 ± 6.2 days
  Mean Onset: 22.7 ± 6.4 days
  Mortality: 0/15
  MMS value: 2.1 ± 1.7
MOG induced EAE [1]; [7]
  % Inhibition 2: 82.9%
  % Inhibition 1: 73.3%
  % Inhibition 3: 90.5%
  GMS value: 0.2 ± 0.5
  Incidence: 4/15
  Mean Duration: 1.8 ± 3.7 days
  Mean Onset: 28.9 ± 3.8 days
  Mortality: 0/15
  MMS value: 0.6 ± 0.2
MOG induced EAE [1]; [8]
  % Inhibition 2: 100.0%
  % Inhibition 1: 100.0%
  % Inhibition 3: 100%
  GMS value: 0.0 ± 0.0
  Incidence: 0/15
  Mean Duration: 0.0 ± 0.0 days
  Mean Onset: 0.0 ± 0.0 days
  Mortality: 0/15
  MMS value: 0.0 ± 0.0
MOG induced EAE [2]; [9]
  Group Mean Score: 0.64 ± 0.2
  Incidence % inhibition: 46.7%
  Incidence Total: 8/15
  Mean Disease Duration: 4.0 ± 1.2 days
  Mean Maximal Score: 1.3 ± 0.4
  Mean Onset days: 17.3 ± 1.24 days
  Mortality Total %: 0%
  GMS Inhibition %: 34.0%
  MMS Inhibition %: 31.6%
MOG induced EAE [2]; [10]
  Incidence % inhibition: 93.3%
  Incidence Total: 1/15
  Mean Disease Duration: 0.3 ± 0.3 days
  Mean Maximal Score: 0.1 ± 0.06
  Mean Onset days: 21.5 ± 0.5 days
  Mortality Total %: 0%
  GMS Inhibition %: 97.9%
  MMS Inhibition %: 94.7%
MOG induced EAE [2]; laquinimod at 25 mg/kg
  EAE clinical signs (conclusion): significantly ameliorated EAE clinical signs
MOG induced EAE [2]; laquinimod at 5 and 25 mg/kg
  efficacy in MOG-induced EAE (conclusion): dose-dependent efficacy
MOG-induced EAE; laquinimod 0.06 mg/kg oral QD alone
  inhibition of disease severity: moderately effective

## CCOC(=O)/C=C/C(=O)O [MEF, monoethyl fumarate]
MOG induced EAE [2]; [11]
  Group Mean Score: 1.23 ± 0.2
  Incidence % inhibition: 20%
  Incidence Total: 12/15
  Mean Disease Duration: 7.1 ± 1.0 days
  Mean Maximal Score: 2.3 ± 0.38
  Mean Onset days: 14.7 ± 1.0 days
  Mortality Total %: 0%
  GMS Inhibition %: 26.8%
  MMS Inhibition %: −21.1%
MOG induced EAE [2]; MEF at 90 mg/kg
  alleviation of EAE disease signs (conclusion): not effective
MOG induced EAE [2]; MEF 90 mg/kg gavage twice a day from Day 1, listed as Mono EF
  GMS Inhibition %: −26.8%
